Assay results from patent US20160186196A1 (priority 2009, published 2016).

Experiments:
Type in all cases: cell-based, Chlamydomonas reinhardtii
[1] = system: C. reinhardtii UTEX 2244 and transformants; assay: Rose Bengal photooxidative stress kill curves in liquid culture; settings: 2 μM Rose Bengal, within the first five hours of exposure
Experimental: Exposure of C. reinhardtii to Rose Bengal was performed as follows. In order to induce apoptosis in C. reinhardtii by the mechanism of photooxidative stress, algal cells were grown on solid medium containing various concentrations of the photosensitizing dye Rose Bengal as described in Fischer et al. (Plant Sci, 168:747-759 (2005)). Duplicate plates with RB levels as high as up to 2.0 μM were initially spread with 1×10^3 cells and resulting colonies were counted after a: period of one week. UTEX 2244 was used as a control. Cell viability is reported as a percentage of surviving cells. Additionally, kill curves were conducted in liquid culture using 100-ml stirrer flasks under the same cultivation conditions mentioned previously, with the exception of aeration. Each culture was seeded with an inoculum of exponentially growing cells (1×10^6 cells ml^−1) and the cell density was measured with a Zeiss Axiovert™ 100 inverted light microscope using a hemocytometer over a one-week period. In the experimental flasks, 100x RB dissolved in isopropanol stock solution was added three days after inoculation to cultures of approximately 0.2×10^6 cells ml^−1 in order achieve a final concentration of 2.0 μM; control flasks were unaltered.

[2] = system: bleomycin-resistant C. reinhardtii stable transformants; assay: Bleocin kill curves on solid medium, mixed population of wild-type and bleomycin-resistant cells; settings: mixed population wild-type:bleomycin-resistant cells 5×10^7:1×10^3, solid medium, two weeks
Experimental: (§1) Exposure of C. reinhardtii to antibiotic selective pressure was performed as follows. In order to test the efficacy of the antibiotic bleocin (EMD Biosciences) on C. reinhardtii UTEX 2244, algal cells were grown on solid medium containing various concentrations of this selective agent—0, 0.25, 0.5, 1.0, 2.0, 4.0, 6.0, and 8.0 mg L^−1. Duplicate plates were initially spread with either 1×10^3 or 5×10^7 wild-type cells and the cultures' viability was examined over a period of two weeks. Once stable transformants were obtained, this experiment was repeated with a mixed population of wild-type and bleomycin-resistant cells (5×10^7:1×10^3) to verify the emergence of individual colonies from the surrounding lawn of algal cells.

C. reinhardtii UTEX 2244 = assay: Minimum inhibitory bleocin concentration on solid medium, wild-type cells
Experimental: as §1

| Compound | effect on cell populations [1] | bleocin concentration in which some stable transformants were able to survive [2] [mg/L] | minimum inhibitory concentration (M.I.C.) to eradicate the entire population (C. reinhardtii UTEX 2244; high density lawn, 5×10^7 cells per plate, two-week incubation) | concentration sufficient to completely inhibit growth (absence of colony formation) (C. reinhardtii UTEX 2244; low density, 1,000 cells per plate, solid medium) [mg/L] | concentration giving widespread cell death (C. reinhardtii UTEX 2244; within only four days of exposure) |
| --- | --- | --- | --- | --- | --- |
| O=C([O-])c1c(Cl)c(Cl)c(Cl)c(Cl)c1-c1c2cc(I)c(=O)c(I)c-2oc2c(I)c([O-])c(I)cc12.[Na+].[Na+] [Rose Bengal] | all populations experienced some cell death |  |  |  |  |
| bleocin |  | ≤ 8 | at least 1 mg L^−1 | 0.25 | more than 4 mg L^−1 |
